In article PMC7369900 (International Journal of Molecular Sciences, 2020):
In brackets after ≈: the same amount, converted by molar mass.

What was measured:
S. aureus ATCC 29213 = assay: microbe, parasite or virus in culture; type: cell-based, Staphylococcus aureus; conditions: S. aureus ATCC 29213, MHB
Description: (§1) The antibacterial activity of TP10-NH2-based conjugates, as well as its constituents, was evaluated by microdilution assay in Mueller Hinton broth, MHB (Table 1). […] There are, however, some exceptions. […] Its activity against two other tested bacteria was somewhat lower though.
(§2) The antibacterial activity (bacteriostatic: MIC and bactericidal: MBC) of the tested compounds was determined in MHB (Mueller Hinton Broth, Sigma Aldrich, St. Louis, MO, USA) using a serial two-fold dilution method in 96-well microtiter plates according to CLSI recommendations, described in M07-A10 document. The exact conditions have been described previously. All experiments were performed in three replicates. The MIC90 and MIC50 values were defined as the concentrations of compounds tested that caused a 90% or 50% reduction of growth, respectively, comparing to the drug-free control.

[1] = system: S. epidermidis ATCC 12228; assay: microbe, parasite or virus in culture; type: cell-based, Staphylococcus epidermidis; conditions: S. epidermidis ATCC 12228, MHB
Description: as §1, §2

E. coli ATCC 25922 = assay: microbe, parasite or virus in culture; type: cell-based, Escherichia coli; conditions: E. coli ATCC 25922, MHB
Description: as §1, §2

P. aeruginosa ATCC 27853 = assay: microbe, parasite or virus in culture; type: cell-based, Pseudomonas aeruginosa; conditions: P. aeruginosa ATCC 27853, MHB
Description: as §1, §2

bacteria = assay: Influence of salts: antibacterial activity in MHB2 compared to MHB; type: cell-based; conditions: MHB2: Ca(II) 20–25 mg/L, Mg(II) 10–12.5 mg/L
Description: Additionally, for selected compounds, the aspect of the influence of salts present in the medium on antimicrobial activity was evaluated. […] In the salt-enriched medium, the MIC values determined for TP10-NH2 were up to 40-fold higher than those found in MHB. The phenomenon of reduction of the growth inhibitory activity of antimicrobial peptides at a high salt concentration was previously evidenced by other researchers. It may cause severe limitations for AMPs’ usage as therapeutic agents because of the risk of potential inactivation by salts present in the human body.

HEK 293 [2] = assay: cells; type: cell-based, human; conditions: HEK 293, 72 h, MTT
Description: (§3) Among the conjugates, LVXC-S-S-CTP10-NH2 (5) was the least cytotoxic. […] In the case of HEK 293 and LLC-PK1 cells, the IC50 values of 5 were nearly four times higher. […] Additionally, we noted that the cancer cells Hep G2 were less sensitive to the action of the given compounds than the non-cancer cells (HEK 293 and LLC-PK1).
(§4) Cytotoxicity was assessed against three mammalian cell lines: LLC-PK1, Hep G2, and HEK 293. Multiwell (96–well) plates were seeded at 7000 cells/well in Medium 199 supplemented with 7.5% FBS, MEM Eagle’s medium supplemented with 10% FBS, or DMEM medium supplemented with 10% FBS, respectively. All media were supplemented with L-glutamine and antibiotics (penicillin/streptomycin). Cells were allowed to attach overnight. Drugs were dissolved in cell culture medium and added to wells in 100-µL aliquots of 2× concentrated solutions, in triplicates. To control wells, 100 µL of the medium were added. Cells were incubated with the studied compounds for 72 h at 37 °C and 95%/5% or 90%/10% (HEK 293 cells) CO2 atmosphere. Then, 20-µL aliquots of MTT solution in PBS (4 mg/mL) were added to all wells and plates were incubated further for 3 h in 37 °C. Formazan crystals formed were dissolved in 100 µL of DMSO and the absorbance of the solutions was measured using a multiwell plate reader (Spark, Tecan, Männedorf, Switzerland) at λ = 540 nm. Cytotoxicity was determined compared to the drug-free control. All experiments were performed in triplicates.

Hep G2 = assay: cells; type: cell-based, human; conditions: Hep G2, 72 h, MTT
Description: as §3, §4

LLC-PK1 = assay: cells; type: cell-based, pig; conditions: LLC-PK1, 72 h, MTT
Description: as §3, §4

[3] = system: C. albicans Δopt1Δopt5Δptr2Δptr22
[4] = system: Gram-positive and Gram-negative bacteria; type: cell-based; conditions: MHB, four bacteria
Description: as §1, §2

HEK 293 [5] = assay: ROS generation (CM-H2DCFDA, flow cytometry); type: cell-based, human; conditions: positive cells in 24 h, class
Description: (§5) In the positive controls treated with H2O2, the fraction of ROS-positive cells exceeded 75%. […] Strikingly, in HL-60, a biologically significant effect was observed almost immediately (after 15 min of incubation). The same was noted after 1 h in the HEK 293 cell line. […] Similarly, conjugates 4 and 5 generated ROS at the low level (less than 15% for HL-60 and less than 20% for HEK 293) (manuscript in preparation). […] For HL-60, the critical level of ROS was noted after 15 min of incubation.
(§6) ROS generation activity was evaluated as described previously. Briefly, HEK 293 cells were seeded on 35-mm Petri dishes in the amount of 15,000 cells per plate for 24 h in DMEM medium. […] Positive controls contained 250 µM H2O2, while negative controls were without any additions. After 0.5, 2.5, 5.5, and 24 h of incubation at 37 °C, the CM-H2DCFDA molecular probe (Thermo Fischer Scientific, Waltham, USA) was added to the plates and incubation was continued for another 0.5 h. The HEK 293 cells were detached with 0.05% trypsin solution in PBS and HBSS (Hank’s Balanced Salt Solution) and suspended in fresh DMEM medium. All samples were additionally stained with 7-AAD (7-aminoactinomycin D, 0.8 µg/mL) and immediately analysed with a Guava easyCyte flow cytometer (Merc, Burlington, USA). The determinations were performed in triplicates.

HL-60 = assay: ROS generation (CM-H2DCFDA, flow cytometry); type: cell-based, human; conditions: positive cells in 24 h, class
Description: as §5, §6

HL-60 and HEK 293 cells = assay: ROS generation, statements not split by cell line; type: cell-based, human; conditions: cell line not specified
Description: as §5, §6

human red blood cells = assay: Hemolysis assay; conditions: 1 h, 37 °C
[6] = target: T1, yeast DNA topoisomerase II (Saccharomyces cerevisiae, UniProt P06786); assay: biochemical; type: biochemical; conditions: class; read-out: Topoisomerase II Inhibition
T1 construct: purchased Inspiralis (Norwich, UK)
T1 sequence (P06786 whole entry): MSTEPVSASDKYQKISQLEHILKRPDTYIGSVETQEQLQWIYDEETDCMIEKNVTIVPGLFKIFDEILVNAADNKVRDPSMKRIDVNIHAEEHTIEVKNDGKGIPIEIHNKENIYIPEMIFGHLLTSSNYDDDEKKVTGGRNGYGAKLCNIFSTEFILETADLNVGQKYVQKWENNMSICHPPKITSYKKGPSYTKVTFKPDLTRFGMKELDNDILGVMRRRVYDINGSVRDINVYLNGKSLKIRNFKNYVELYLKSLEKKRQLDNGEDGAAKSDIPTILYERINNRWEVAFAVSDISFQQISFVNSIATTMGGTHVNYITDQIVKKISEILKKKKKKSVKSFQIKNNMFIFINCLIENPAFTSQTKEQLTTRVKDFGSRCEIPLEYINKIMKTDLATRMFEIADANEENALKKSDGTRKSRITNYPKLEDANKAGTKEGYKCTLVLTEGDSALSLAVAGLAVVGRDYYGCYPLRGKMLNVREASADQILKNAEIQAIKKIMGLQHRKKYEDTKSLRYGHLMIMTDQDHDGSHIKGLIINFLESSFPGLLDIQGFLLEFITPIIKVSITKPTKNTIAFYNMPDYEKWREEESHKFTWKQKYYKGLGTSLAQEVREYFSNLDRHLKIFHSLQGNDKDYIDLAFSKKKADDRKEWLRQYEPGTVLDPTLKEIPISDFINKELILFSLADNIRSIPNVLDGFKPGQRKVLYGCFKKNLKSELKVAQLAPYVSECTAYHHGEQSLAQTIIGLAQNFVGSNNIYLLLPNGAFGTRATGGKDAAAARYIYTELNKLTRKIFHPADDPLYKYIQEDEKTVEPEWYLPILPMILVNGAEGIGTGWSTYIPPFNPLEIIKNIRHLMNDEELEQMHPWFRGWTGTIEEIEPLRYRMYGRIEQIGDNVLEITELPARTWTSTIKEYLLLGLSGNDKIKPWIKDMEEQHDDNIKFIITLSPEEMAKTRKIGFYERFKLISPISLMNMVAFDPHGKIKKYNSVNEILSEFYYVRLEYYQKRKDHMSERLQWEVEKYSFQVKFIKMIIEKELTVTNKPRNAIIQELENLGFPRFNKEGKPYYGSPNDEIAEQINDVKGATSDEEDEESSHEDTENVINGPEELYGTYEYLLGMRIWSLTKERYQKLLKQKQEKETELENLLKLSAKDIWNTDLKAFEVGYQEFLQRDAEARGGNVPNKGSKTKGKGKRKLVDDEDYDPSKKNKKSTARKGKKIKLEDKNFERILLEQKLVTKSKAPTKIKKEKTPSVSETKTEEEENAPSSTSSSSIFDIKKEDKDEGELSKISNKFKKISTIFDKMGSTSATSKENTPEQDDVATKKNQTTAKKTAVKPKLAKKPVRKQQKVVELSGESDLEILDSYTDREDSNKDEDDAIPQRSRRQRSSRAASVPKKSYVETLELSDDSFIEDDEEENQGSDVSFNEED

[7] = Stability in PBS and growth media; type: physicochemical; conditions: phosphate-buffered saline and growth media used for antibacterial and antifungal tests
Excerpt: CIP-S-S-TP10-NH2 was stable in phosphate-buffered saline (PBS) and growth media used for the determination of antibacterial and antifungal in vitro activity.

[8] = system: S. aureus ATCC 25,923 cells; assay: Stability inside bacterial cells (LC-MS of cell lysate)

Row | Structure (SMILES) | MIC50 (S. aureus ATCC 29213) | MIC90 (S. aureus ATCC 29213) | MIC50 [1] | MIC90 [1] | MIC50 (E. coli ATCC 25922) | MIC90 (E. coli ATCC 25922) | MIC50 (P. aeruginosa ATCC 27853) | MIC90 (P. aeruginosa ATCC 27853) | IC50 (HEK 293 [2]) | IC50 (Hep G2) | IC50 (LLC-PK1) | MIC50 (C. albicans SC 5314) | MIC90 (C. albicans SC 5314) | MIC50 [3] | MIC90 [3] | MIC50 (C. albicans Gu4) | MIC50 (C. glabrata DSM 11226) | MIC50 (C. krusei DSM 6128) | ROS HEK 293 (HEK 293 [5]) | ROS HL-60 (HL-60) | also measured
1 | CC[C@H](C)[C@H](NC(=O)[C@H](CCCCN)NC(=O)[C@H](CCCCN)NC(=O)[C@H](C)NC(=O)[C@H](CC(C)C)NC(=O)[C@H](C)NC(=O)[C@H](C)NC(=O)[C@H](CC(C)C)NC(=O)[C@H](C)NC(=O)[C@H](CCCCN)NC(=O)[C@H](CC(C)C)NC(=O)[C@H](CC(N)=O)NC(=O)[C@@H](NC(=O)[C@H](CCCCN)NC(=O)CNC(=O)[C@H](CC(C)C)NC(=O)[C@H](CC(C)C)NC(=O)[C@H](Cc1ccc(O)cc1)NC(=O)CNC(=O)[C@H](C)NC(=O)CN1CCN(c2cc3c(cc2F)c(=O)c(C(=O)O)cn3C2CC2)CC1)[C@@H](C)CC)C(=O)N[C@@H](CC(C)C)C(N)=O [Compound 1, CIP-CH2CO-TP10-NH2] | 12.5 µM (≈ 31.9 µg/mL) | 12.5 µM (≈ 31.9 µg/mL) | 6.25 µM (≈ 16 µg/mL) | 12.5 µM (≈ 31.9 µg/mL) | 25 µM (≈ 63.8 µg/mL) | 25 µM (≈ 63.8 µg/mL) | >100 µM | >100 µM | 10.8 ± 1.87 µM | 21.7 ± 2.18 µM | 17.8 ± 1.93 µM | 50 µM (≈ 128 µg/mL) | 100 µM (≈ 255 µg/mL) | 100 µM (≈ 255 µg/mL) | 200 µM (≈ 511 µg/mL) | 50 µM (≈ 128 µg/mL) | >200 µM | 50 µM (≈ 128 µg/mL) | – | – | Influence of salts (MHB2 vs MHB) on antibacterial activity (bacteria): slight decrease of antibacterial activity
2 | CC[C@H](C)[C@H](NC(=O)[C@H](CCCCN)NC(=O)[C@H](CCCCN)NC(=O)[C@H](C)NC(=O)[C@H](CC(C)C)NC(=O)[C@H](C)NC(=O)[C@H](C)NC(=O)[C@H](CC(C)C)NC(=O)[C@H](C)NC(=O)[C@H](CCCCN)NC(=O)[C@H](CC(C)C)NC(=O)[C@H](CC(N)=O)NC(=O)[C@@H](NC(=O)[C@H](CCCCN)NC(=O)CNC(=O)[C@H](CC(C)C)NC(=O)[C@H](CC(C)C)NC(=O)[C@H](Cc1ccc(O)cc1)NC(=O)CNC(=O)[C@H](C)NC(=O)c1cn(C2CC2)c2cc(N3CCNCC3)c(F)cc2c1=O)[C@@H](C)CC)C(=O)N[C@@H](CC(C)C)C(N)=O [Compound 2, CIP-TP10-NH2] | 0.8 µM (≈ 2 µg/mL) | 0.8 µM (≈ 2 µg/mL) | 1.6 µM (≈ 3.99 µg/mL) | 1.6 µM (≈ 3.99 µg/mL) | 1.6 µM (≈ 3.99 µg/mL) | 1.6 µM (≈ 3.99 µg/mL) | – | – | 10.4 ± 1.39 µM | 11.5 ± 2.03 µM | 27.1 ± 1.82 µM | 12.5 µM (≈ 31.2 µg/mL) | 12.5 µM (≈ 31.2 µg/mL) | 6.25 µM (≈ 15.6 µg/mL) | 12.5 µM (≈ 31.2 µg/mL) | 25 µM (≈ 62.4 µg/mL) | >200 µM | 50 µM (≈ 125 µg/mL) | ++ (++ <10% positive cells in 24 h) | ++ (++ <10% positive cells in 24 h) | MIC values, range over tested bacteria [4]: 0.8 to 3.125 µM; ROS generation (HL-60 and HEK 293 cells): no ROS generation was observed; MHC50 (concentration causing 50% hemolysis) (human red blood cells): 25 µg/mL; MHC50 (concentration causing 50% hemolysis) (human red blood cells; converted from μg/mL): ~ 10 μM
3 | CC[C@H](C)[C@H](NC(=O)[C@H](CCCCN)NC(=O)[C@H](CCCCN)NC(=O)[C@H](C)NC(=O)[C@H](CC(C)C)NC(=O)[C@H](C)NC(=O)[C@H](C)NC(=O)[C@H](CC(C)C)NC(=O)[C@H](C)NC(=O)[C@H](CCCCN)NC(=O)[C@H](CC(C)C)NC(=O)[C@H](CC(N)=O)NC(=O)[C@@H](NC(=O)[C@H](CCCCN)NC(=O)CNC(=O)[C@H](CC(C)C)NC(=O)[C@H](CC(C)C)NC(=O)[C@H](Cc1ccc(O)cc1)NC(=O)CNC(=O)[C@H](C)NC(=O)CCSSCCC(=O)N1CCN(c2cc3c(cc2F)c(=O)c(C(=O)O)cn3C2CC2)CC1)[C@@H](C)CC)C(=O)N[C@@H](CC(C)C)C(N)=O [Compound 3, CIP-S-S-TP10-NH2] | 0.8 µM (≈ 2.15 µg/mL) | 0.8 µM (≈ 2.15 µg/mL) | 0.8 µM (≈ 2.15 µg/mL) | 0.8 µM (≈ 2.15 µg/mL) | 0.0125 µM (≈ 0.0336 µg/mL) | 0.025 µM (≈ 0.0672 µg/mL) | 0.8 µM (≈ 2.15 µg/mL) | 1.6 µM (≈ 4.3 µg/mL) | 13.1 ± 1.22 µM | 19 ± 2.08 µM | 16.8 ± 2.62 µM | 6.25 µM (≈ 16.8 µg/mL) | 25 µM (≈ 67.2 µg/mL) | 12.5 µM (≈ 33.6 µg/mL) | 25 µM (≈ 67.2 µg/mL) | 6.25 µM (≈ 16.8 µg/mL) | >200 µM | 25 µM (≈ 67.2 µg/mL) | ++ (++ <10% positive cells in 24 h) | + (+ <15% positive cells in 24 h) | IC50 [6]: < 50 µM; ROS generation (HL-60 and HEK 293 cells): no ROS generation was observed; Stability in PBS and growth media [7]: stable; Stability inside bacterial cells [8]: reduced inside the cell
